From US20230391838A1 (priority 2020, published 2023)
*1 amine or outer side, *2 acyl side, *3 side chain or, on linkers, in order; H or OH if unused. Where a SMILES comes first, the peptide text is derived from it. Bridges are numbered along the chain shown (N, C = ends). [ ]: non-standard residue; d: D form. Tyr(3-I) = N[C@@H](Cc1ccc(O)c(I)c1)C(=O)O; β3hY = N[C@H](CC(=O)O)Cc1ccc(O)cc1; CH2 = C([*:1])[*:2]

Details: pH 7.4

C[C@@H](O)[C@@H]1NC(=O)[C@@H]2CSCSC[C@@H](C(=O)N[C@H](CC(=O)N[C@@H](CCCNC(=N)N)C(=O)O)Cc3ccc(O)cc3)NC(=O)[C@H](CCC(N)=O)NC(=O)[C@H](Cc3ccc(O)c(I)c3)NC(=O)[C@H](CCCNC(=N)N)NC(=O)[C@H](CSSC[C@H](NC(=O)CN)C(=O)N2)NC(=O)[C@H](CCCNC(=N)N)NC(=O)[C@@H]2CCCN2C(=O)[C@H](CC(=O)O)NC1=O [RgIA-5524, G C^I C^II T D P R C^III R (iY) Q C^IV (bhY) R] (H-GCCTDPRCR[Tyr(3-I)]QC[β3hY]R-OH; disulfide 2-8; linker 3-12 via CH2)
disulfide scrambling in presence of reduced glutathione (in words): largely suppress disulfide scrambling
